Assay results reported in PubChem BioAssay AID248 (DTP/NCI, 2004).
“And” between values parts separate entries of the source, which are not always exact repeats. Equal entries are not always repeated. Inconclusive results and toxic doses are left out.

System: L1210 leukemia ip in BDF1 mice, survival T/C
Test: NCI In Vivo Anticancer Drug Screen. Data for tumor model L1210 Leukemia (intraperitoneal) in B6D2F1 (BDF1) mice
Details: endpoint: mean survival time, higher = longer survival
How it was run: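 Mice bearing the transplanted tumor received compound or vehicle. Survival of the treated group was divided by that of the vehicle-treated control group to give the ratio.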

[1] = dose: 100.0 mg/kg/injection, schedule: Q01DX001 (ip), vehicle: saline
[2] = dose: 200.0 mg/kg/injection, schedule: Q01DX001 (ip), vehicle: saline
[3] = dose: 400.0 mg/kg/injection, schedule: Q01DX001 (ip), vehicle: saline
[4] = dose: 100.0 mg/kg/injection, schedule: Q01DX001 (ip), vehicle: Klucel (hydroxypropylcellulose) (HPC)
[5] = dose: 100.0 mg/kg/injection, schedule: Q04DX003 (ip), vehicle: Klucel (hydroxypropylcellulose) (HPC)
[6] = dose: 200.0 mg/kg/injection, schedule: Q01DX001 (ip), vehicle: Klucel (hydroxypropylcellulose) (HPC)
[7] = dose: 200.0 mg/kg/injection, schedule: Q04DX003 (ip), vehicle: Klucel (hydroxypropylcellulose) (HPC)
[8] = dose: 400.0 mg/kg/injection, schedule: Q04DX003 (ip), vehicle: Klucel (hydroxypropylcellulose) (HPC)
[9] = dose: 100.0 mg/kg/injection, schedule: Q01DX009 (ip), vehicle: Klucel (hydroxypropylcellulose) (HPC)
[10] = dose: 200.0 mg/kg/injection, schedule: Q01DX009 (ip), vehicle: Klucel (hydroxypropylcellulose) (HPC)
[11] = dose: 400.0 mg/kg/injection, schedule: Q01DX009 (ip), vehicle: Klucel (hydroxypropylcellulose) (HPC)
[12] = dose: 50.0 mg/kg/injection, schedule: Q01DX009 (ip), vehicle: saline with Tween-80
[13] = dose: 100.0 mg/kg/injection, schedule: Q01DX009 (ip), vehicle: saline with Tween-80
[14] = dose: 200.0 mg/kg/injection, schedule: Q01DX009 (ip), vehicle: saline with Tween-80

For `COc1cc2cnccc2cc1OCc1ccccc1`, the T/C (dose: 25.0 mg/kg/injection, schedule: Q01DX009 (ip), vehicle: water) was 96 % of control, the T/C (dose: 50.0 mg/kg/injection, schedule: Q01DX009 (ip), vehicle: water) was 97 % of control and the T/C (dose: 100.0 mg/kg/injection, schedule: Q01DX009 (ip), vehicle: water) was 100 % of control.
With `CCOC(=O)CC(c1ccccc1)C(C(=O)OCC)C(=O)OCC` (stereo not drawn) the T/C [1] was 106 % of control, the T/C [2] was 103 % of control and the T/C [3] was 103 % of control.
`COc1cc(C=Nc2ccc(C(=O)O)cc2)ccc1N(CCCl)CCCl` was tested, and the T/C (dose: 6.0 mg/kg/injection, schedule: Q01DX001 (ip), vehicle: carboxymethylcellulose (CMC)) was 107 % of control, the T/C (dose: 12.0 mg/kg/injection, schedule: Q01DX015 (ip), vehicle: carboxymethylcellulose (CMC)) was 109 % of control and the T/C (dose: 12.5 mg/kg/injection, schedule: Q01DX001 (ip), vehicle: carboxymethylcellulose (CMC)) was 112 % of control.
With `CC(C)(C)NCCCC(=O)O` the T/C (dose: 100.0 mg/kg/injection, schedule: Q04DX003 (ip), vehicle: saline with Tween-80) was 110 % of control, the T/C (dose: 200.0 mg/kg/injection, schedule: Q04DX003 (ip), vehicle: saline with Tween-80) was 100 % of control and the T/C (dose: 400.0 mg/kg/injection, schedule: Q04DX003 (ip), vehicle: saline with Tween-80) was 92 % of control.
`O=C(O)c1cc(Br)cc(Cl)c1Br` was tested, and the T/C (dose: 100.0 mg/kg/injection, schedule: Q04DX002 (ip), vehicle: Klucel (hydroxypropylcellulose) (HPC)) was 96 % of control and the T/C (dose: 200.0 mg/kg/injection, schedule: Q04DX002 (ip), vehicle: Klucel (hydroxypropylcellulose) (HPC)) was 96 % of control.
With `O=C1NC(=O)C(c2ccccc2Cl)N1` (stereo not drawn) the T/C [4] was 109 % of control, the T/C [5] was 102 % of control and the T/C [6] was 118 % of control. For the same compound, the T/C [7] was 100 % of control, the T/C (dose: 400.0 mg/kg/injection, schedule: Q01DX001 (ip), vehicle: Klucel (hydroxypropylcellulose) (HPC)) was 103 % of control and the T/C [8] was 98 % of control.
For `OCC1SCCS1`, the T/C (dose: 100.0 mg/kg/injection, schedule: Q04DX002 (ip), vehicle: saline with Tween-80) was 101 % of control, the T/C (dose: 200.0 mg/kg/injection, schedule: Q04DX002 (ip), vehicle: saline with Tween-80) was 97 % of control and the T/C (dose: 400.0 mg/kg/injection, schedule: Q04DX002 (ip), vehicle: saline with Tween-80) was 90 % of control.
For `Nc1cc(Cl)cc(Cl)c1C(=O)O`, the T/C (dose: 50.0 mg/kg/injection, schedule: Q01DX009 (ip), vehicle: other) was 100 % of control, the T/C (dose: 100.0 mg/kg/injection, schedule: Q01DX009 (ip), vehicle: other) was 94 % of control and the T/C (dose: 100.0 mg/kg/injection, schedule: Q04DX003 (ip), vehicle: saline) was 90 % of control. The T/C (dose: 200.0 mg/kg/injection, schedule: Q04DX003 (ip), vehicle: saline) was 90 % of control.
With `O=C(Nc1cc(C(F)(F)F)cc(C(F)(F)F)c1)Nc1ccccc1C(F)(F)F` the T/C [9] was 98 % of control, the T/C [10] was 102 % of control and the T/C [11] was 90 % of control.
For `COc1cc(Cl)ccc1NC(=O)Oc1ccc(-c2ccccc2)cc1`, the T/C [9] was 116 % of control, the T/C [10] was 94 % of control and the T/C [11] was 92 % of control.
`O=C(NCCCCCCNC(=O)Nc1cccc2ccccc12)Nc1cccc2ccccc12` was tested, and the T/C [9] was 97 % of control, the T/C [10] was 103 % of control and the T/C [11] was 92 % of control.
With `O=[N+]([O-])c1cc(Cl)cc2c1nc(NCCO)c1ccccc12` the T/C (dose: 25.0 mg/kg/injection, schedule: Q01DX009 (ip), vehicle: Klucel (hydroxypropylcellulose) (HPC)) was 95 % of control, the T/C (dose: 50.0 mg/kg/injection, schedule: Q01DX009 (ip), vehicle: Klucel (hydroxypropylcellulose) (HPC)) was 97 % of control and the T/C [5] was 97 % of control.
In the case of `CCCCC(=O)N/N=C/c1ccc(Cl)cc1`, the T/C (dose: 100.0 mg/kg/injection, schedule: Q01DX001 (ip), vehicle: carboxymethylcellulose (CMC)) was 93 % of control, the T/C (dose: 200.0 mg/kg/injection, schedule: Q01DX001 (ip), vehicle: carboxymethylcellulose (CMC)) was 107 % of control and the T/C (dose: 400.0 mg/kg/injection, schedule: Q01DX001 (ip), vehicle: carboxymethylcellulose (CMC)) was 91 % of control.
`CC12CC[C]([Hg][I])(CC1)C2(C)C` was tested, and the T/C (dose: 6.25 mg/kg/injection, schedule: Q01DX009 (ip), vehicle: saline with Tween-80) was 101 % of control and 103 % of control, the T/C (dose: 12.5 mg/kg/injection, schedule: Q01DX009 (ip), vehicle: saline with Tween-80) was 95 % of control and 110 % of control and the T/C (dose: 25.0 mg/kg/injection, schedule: Q01DX009 (ip), vehicle: saline with Tween-80) was 98 % of control and 211 % of control. The T/C [12] was 91 % of control.
`NC(CCC(=O)NC1(C(=O)O)C2CC3CC(C2)CC1C3)C(=O)O` (stereo not drawn) was tested, and the T/C [9] was 87 % of control, the T/C [10] was 103 % of control and the T/C [11] was 89 % of control.
In the case of `Nc1nc(N)nc(-c2ccccc2NC(=O)c2ccccc2[N+](=O)[O-])n1`, the T/C [9] was 91 % of control, the T/C [5] was 101 % of control and the T/C [10] was 96 % of control. For the same compound, the T/C [7] was 105 % of control, the T/C [11] was 90 % of control and the T/C [8] was 100 % of control.
With `COc1ccc(COC(=O)Nc2ccccc2C(F)(F)F)cc1` the T/C (dose: 100.0 mg/kg/injection, schedule: Q01DX009 (ip), vehicle: gum acacia) was 89 % of control and the T/C (dose: 200.0 mg/kg/injection, schedule: Q01DX009 (ip), vehicle: gum acacia) was 89 % of control.
With `CCCCNC(=O)/C(=C\c1ccccc1)NC(C)=O` the T/C (dose: 3.0 mg/kg/injection, schedule: Q04DX003 (ip), vehicle: DMSO) was 92 % of control, the T/C (dose: 6.0 mg/kg/injection, schedule: Q04DX003 (ip), vehicle: DMSO) was 92 % of control and the T/C (dose: 6.25 mg/kg/injection, schedule: Q01DX009 (ip), vehicle: DMSO) was 96 % of control. The T/C (dose: 12.0 mg/kg/injection, schedule: Q04DX003 (ip), vehicle: DMSO) was 94 % of control, the T/C (dose: 12.5 mg/kg/injection, schedule: Q01DX009 (ip), vehicle: DMSO) was 93 % of control and the T/C (dose: 12.5 mg/kg/injection, schedule: Q04DX003 (ip), vehicle: DMSO) was 100 % of control.
For `COc1cc(C=O)ccc1OCCCOc1ccc(C=O)cc1OC`, the T/C [12] was 104 % of control, the T/C [13] was 93 % of control and the T/C [14] was 101 % of control.
`O=S(=O)(O)c1cccc2nsnc12` was tested, and the T/C [9] was 107 % of control and the T/C [10] was 109 % of control.
`CC(C)(C)CC(C)(C)N(CSc1ccc2ccccc2c1)CSc1ccc2ccccc2c1` was tested, and the T/C [1] was 98 % of control, the T/C [2] was 98 % of control and the T/C [3] was 91 % of control.
In the case of `CCCCCCCC1CCCCC1`, the T/C (dose: 50.0 mg/kg/injection, schedule: Q01DX001 (ip), vehicle: saline) was 101 % of control, the T/C [1] was 98 % of control and the T/C [2] was 101 % of control. The T/C [3] was 98 % of control.
For `COc1ccccc1-n1c(O)c(N=Nc2ccc(Cl)cc2)c(=O)n(-c2ccc(Cl)cc2)c1=S`, the T/C (dose: 75.0 mg/kg/injection, schedule: Q04DX003 (ip), vehicle: Klucel (hydroxypropylcellulose) (HPC)) was 94 % of control, the T/C [4] was 94 % of control and the T/C (dose: 150.0 mg/kg/injection, schedule: Q04DX003 (ip), vehicle: Klucel (hydroxypropylcellulose) (HPC)) was 103 % of control. For the same compound, the T/C [6] was 100 % of control and the T/C (dose: 300.0 mg/kg/injection, schedule: Q04DX003 (ip), vehicle: Klucel (hydroxypropylcellulose) (HPC)) was 90 % of control.
For `O=C1CN(CCN2CC(=O)N(c3ccccc3)C2=S)C(=S)N1Cc1ccccc1`, the T/C [12] was 96 % of control, the T/C [13] was 90 % of control and the T/C [14] was 94 % of control.
